# Data: patent US4513001A, “β-Adrenergic 1-[1-benzimidazolyl]-N-[2-(4-hydroxy-3-methoxy-phenyl)-2-hydroxy-ethyl]- 3-amino butane and salts and hydrates thereof” (priority 1982, dated 1985)
# Like-named read-outs stand apart in the source and are kept apart here.
# Key:
# [1] = system: isolated trachea preparation of the guinea pig; assay: Relaxant activity on isolated tracheal muscle in vitro; settings: 6 preparations
# Procedure: This activity was studied on an isolated trachea preparation of the guinea pig (chain of tracheal rings, according to CASTILLO and BEER. Journ. Pharmacol. Exp. Ther. 1947 90 104-109), kept alive in a KREBS solution. The effect of cumulative doses on the pressure of the preparation was recorded.
# The activity of the substance was expressed by the value of the molar CD50 (decontracting concentration 50=concentration giving 50% of maximum relaxation), of which the negative log. is the value pD2, and by the intrinsic activity corresponding to maximum effect.
# These values were determined in parallel for the compound A and Salbutamol, on 6 preparations for each.
# histamine bronchospasm [2] = assay: Bronchodilator activity in vivo, anesthetized guinea pig, intravenous (inhibition of histamine bronchospasm, KONZETT); settings: i.v.
# Procedure: (§1) 1.2.1 In the anesthesized guinea pig (method of KONZETT. Arch. Exp. Pathol. Pharmakol. 1940 195 71-74)
# (§2) A bronchospasm was caused by intravenous histamine injection. The bronchodilator activity was shown by partial or total inhibition of this spasm.
# The product studied was administered intravenously or intraduodenaly and histamine injected then at different times to follow the delay in appearance and the duration of the inhibiting effect of the treatment. […]
# histamine bronchospasm [3] = assay: Bronchodilator activity in vivo, anesthetized guinea pig, intraduodenal (inhibition of histamine bronchospasm, KONZETT)
# Procedure: as §1, §2
# The product studied was administered intravenously or intraduodenaly and histamine injected then at different times to follow the delay in appearance and the duration of the inhibiting effect of the treatment.
# The results below are the averages of the values obtained in 10 animals.
# histamine bronchospasm [4] = assay: Bronchodilator activity in vivo, anesthetized dog, intraduodenal (intratracheal pressure, histamine bronchospasm)
# Procedure: 1.2.2. In the anesthesized dog (recording of the intratracheal pressure)
# A bronchospasm was caused by intravenous injection and histamine. The bronchodilator activity was shown by partial or total inhibition of this spasm.
# The products studied were administered intraduodenally and the histamine injected then at various times to follow the effect of the treatment.
# The results borne in the table below are the averages of the values obtained in 3 animals for each product.
# rat uterus preparation = assay: Uterus relaxing activity in vitro; settings: Rattus norvegicus, 7 preparations, read-out: CE50 (effective concentration 50, inhibiting by 50% the control contraction)
# Description: This activity was investigated on a rat uterus preparation, put into estrus by cutaneous injection of oestradiol benzoate. The uterine horns were kept alive in a RINGER-LOCKE solution, modified by GADDUM and VOGT.
# Their activity is expressed by the value of the molar CE50 (effective concentration 50, inhibiting by 50% the control contraction induced by the contracting agent).
# Each CE50 indicated below was obtained from the results of 7 preparations.
# [5] = system: isolated right atrium preparation of the guinea pig; assay: Activity on the heart rate in vitro, isolated right atrium
# Procedure: This action was studied on an isolated right atrium preparation of the guinea pig kept alive in a RINGER solution. The effect of cumulative doses on the heart rate was recorded. The results below are the averages of 6 preparations of the compound A, of 4 for Salbutamol
# [6] = system: heart rate and mean aortic pressure; assay: Heart rate and mean aortic pressure of the anesthetised dog, intraduodenal; assay type: in vivo; settings: intraduodenal
# Procedure: 3.1.1. Activity on the heart rate and on the mean aortic pressure of the anesthetisied dog
# The activity of the compound A and of Salbutamol was studied on 2 batches of 3 dogs per product: one in spontaneous respiration, the other in artificial respiration; the two substances were administered intraduodenally at 3 doses: 0.008-0.025 and 0.08 mg/kg.
# guinea pig trachea = assay: β-stimulant specificity: guinea pig trachea before and after propranolol; settings: for EC50: Cavia porcellus, 6 preparations
# Description: respiratory (guinea pig trachea, in vitro)
# cardiovascular (heart rate of the dog, in vivo) by the antagonistic effect of a β-blocking product.
compound,measurement,setting,value
"CC(C)(C)NCC(O)c1ccc(O)c(CO)c1 (stereo not drawn) [Salbutamol, reference compound]",Maximum response (decontraction),[1],358 mg
same,Emax,"[1]; Cavia porcellus, Salbutamol 1.00, read-out: Intrinsic activity",100%
same,EC50,"[1]; Cavia porcellus, read-out: CD50 (decontracting concentration 50, concentration giving 50% of maximum relaxation)",15 nM
same,EC50,"[1]; Cavia porcellus, negative log of molar CD50, read-out: pD2 (converted)",15.1 nM
same,% inhibition in time,"histamine bronchospasm [2]; 0.08 μg base/kg, 1 min",8%
same,% inhibition in time,"histamine bronchospasm [2]; 0.08 μg base/kg, 5 min",2%
same,% inhibition in time,"histamine bronchospasm [2]; 0.08 μg base/kg, 10 min",0%
same,% inhibition in time,"histamine bronchospasm [2]; 0.08 μg base/kg, 15 min",1%
same,% inhibition in time,"histamine bronchospasm [2]; 0.25 μg base/kg, 1 min",25%
same,% inhibition in time,"histamine bronchospasm [2]; 0.25 μg base/kg, 5 min",6%
same,% inhibition in time,"histamine bronchospasm [2]; 0.25 μg base/kg, 10 min",2%
same,% inhibition in time,"histamine bronchospasm [2]; 0.25 μg base/kg, 15 min",2%
same,% inhibition in time,"histamine bronchospasm [2]; 0.8 μg base/kg, 1 min",54%
same,% inhibition in time,"histamine bronchospasm [2]; 0.8 μg base/kg, 5 min",8%
same,% inhibition in time,"histamine bronchospasm [2]; 0.8 μg base/kg, 10 min",7%
same,% inhibition in time,"histamine bronchospasm [2]; 0.8 μg base/kg, 15 min",2%
same,% inhibition in time,"histamine bronchospasm [2]; 2.5 μg base/kg, 1 min",75%
same,% inhibition in time,"histamine bronchospasm [2]; 2.5 μg base/kg, 5 min",13%
same,% inhibition in time,"histamine bronchospasm [2]; 2.5 μg base/kg, 10 min",8%
same,% inhibition in time,"histamine bronchospasm [2]; 2.5 μg base/kg, 15 min",4%
same,% inhibition in time,"histamine bronchospasm [2]; 8 μg base/kg, 1 min",91%
same,% inhibition in time,"histamine bronchospasm [2]; 8 μg base/kg, 5 min",35%
same,% inhibition in time,"histamine bronchospasm [2]; 8 μg base/kg, 10 min",13%
same,% inhibition in time,"histamine bronchospasm [2]; 8 μg base/kg, 15 min",8%
same,% inhibition in time,"histamine bronchospasm [2]; 25 μg base/kg, 1 min",97%
same,% inhibition in time,"histamine bronchospasm [2]; 25 μg base/kg, 5 min",78%
same,% inhibition in time,"histamine bronchospasm [2]; 25 μg base/kg, 10 min",34%
same,% inhibition in time,"histamine bronchospasm [2]; 25 μg base/kg, 15 min",22%
same,% inhibition in time,"histamine bronchospasm [2]; 83 μg base/kg, 1 min",94%
same,% inhibition in time,"histamine bronchospasm [2]; 83 μg base/kg, 5 min",81%
same,% inhibition in time,"histamine bronchospasm [2]; 83 μg base/kg, 10 min",60%
same,% inhibition in time,"histamine bronchospasm [2]; 83 μg base/kg, 15 min",55%
same,% inhibition in time,"histamine bronchospasm [2]; 83 μg base/kg, 30 min",50%
same,% inhibition in time,"histamine bronchospasm [2]; 83 μg base/kg, 45 min (n = 9)",30%
same,% inhibition in time,"histamine bronchospasm [2]; 83 μg base/kg, 60 min (n = 9)",17%
same,Dose to obtain a high activity,histamine bronchospasm [3],8 mg/kg
same,% inhibition in time,"histamine bronchospasm [3]; 0.8 mg base/kg, 1 min",4%
same,% inhibition in time,"histamine bronchospasm [3]; 0.8 mg base/kg, 5 min",18%
same,% inhibition in time,"histamine bronchospasm [3]; 0.8 mg base/kg, 15 min",16%
same,% inhibition in time,"histamine bronchospasm [3]; 0.8 mg base/kg, 30 min",16%
same,% inhibition in time,"histamine bronchospasm [3]; 0.8 mg base/kg, 45 min",13%
same,% inhibition in time,"histamine bronchospasm [3]; 0.8 mg base/kg, 60 min",13%
same,% inhibition in time,"histamine bronchospasm [3]; 2.5 mg base/kg, 1 min",2%
same,% inhibition in time,"histamine bronchospasm [3]; 2.5 mg base/kg, 5 min",14%
same,% inhibition in time,"histamine bronchospasm [3]; 2.5 mg base/kg, 15 min",32%
same,% inhibition in time,"histamine bronchospasm [3]; 2.5 mg base/kg, 30 min",34%
same,% inhibition in time,"histamine bronchospasm [3]; 2.5 mg base/kg, 45 min",29%
same,% inhibition in time,"histamine bronchospasm [3]; 2.5 mg base/kg, 60 min",23%
same,% inhibition in time,"histamine bronchospasm [3]; 2.5 mg base/kg, 90 min",15%
same,% inhibition in time,"histamine bronchospasm [3]; 2.5 mg base/kg, 120 min",10%
same,% inhibition in time,"histamine bronchospasm [3]; 8 mg base/kg, 1 min",31%
same,% inhibition in time,"histamine bronchospasm [3]; 8 mg base/kg, 5 min",64%
same,% inhibition in time,"histamine bronchospasm [3]; 8 mg base/kg, 15 min",76%
same,% inhibition in time,"histamine bronchospasm [3]; 8 mg base/kg, 30 min",72%
same,% inhibition in time,"histamine bronchospasm [3]; 8 mg base/kg, 45 min",65%
same,% inhibition in time,"histamine bronchospasm [3]; 8 mg base/kg, 60 min",58%
same,% inhibition in time,"histamine bronchospasm [3]; 8 mg base/kg, 90 min",52%
same,% inhibition in time,"histamine bronchospasm [3]; 8 mg base/kg, 120 min (n = 9 compound A, n = 8 Salbutamol)",37%
same,% inhibition in time,"histamine bronchospasm [4]; 0.025 mg base/kg, 5 min",21%
same,% inhibition in time,"histamine bronchospasm [4]; 0.025 mg base/kg, 20 min",65%
same,% inhibition in time,"histamine bronchospasm [4]; 0.025 mg base/kg, 35 min",63%
same,% inhibition in time,"histamine bronchospasm [4]; 0.025 mg base/kg, 60 min",61%
same,% inhibition in time,"histamine bronchospasm [4]; 0.025 mg base/kg, 90 min",65%
same,% inhibition in time,"histamine bronchospasm [4]; 0.08 mg base/kg, 5 min",8%
same,% inhibition in time,"histamine bronchospasm [4]; 0.08 mg base/kg, 20 min",50%
same,% inhibition in time,"histamine bronchospasm [4]; 0.08 mg base/kg, 35 min",56%
same,% inhibition in time,"histamine bronchospasm [4]; 0.08 mg base/kg, 60 min",55%
same,% inhibition in time,"histamine bronchospasm [4]; 0.08 mg base/kg, 90 min",52%
same,EC50,rat uterus preparation; contracting agent acetylcholine,5 nM
same,EC50,rat uterus preparation; contracting agent serotonine,8.3 nM
same,"Heart rate, increase",[5]; 1 × 10^-4 mol,+110 beats per min.
same,"Heart rate, maximum","[5]; 1 × 10^-4 mol, basal 202 (Salbutamol)",312 beats per min.
same,"Heart rate, increase",[5]; 1 × 10^-5 mol (maxi for Salbutamol),+115 beats per min.
same,"Heart rate, maximum","[5]; 1 × 10^-5 mol, basal 209 (Compound A), 202 (Salbutamol)",317 beats per min.
same,"Heart rate, increase",[5]; 1 × 10^-6 mol (maxi for Compound A),+106 beats per min.
same,"Heart rate, maximum","[5]; 1 × 10^-6 mol, basal 209 (Compound A), 202 (Salbutamol)",308 beats per min.
same,"Heart rate, increase",[5]; 1 × 10^-7 mol,+90 beats per min.
same,"Heart rate, maximum","[5]; 1 × 10^-7 mol, basal 209 (Compound A), 202 (Salbutamol)",292 beats per min.
same,"Heart rate, increase",[5]; 1 × 10^-8 mol,+49 beats per min.
same,"Heart rate, maximum","[5]; 1 × 10^-8 mol, basal 202 (Salbutamol)",251 beats per min.
same,"Heart rate, maximum cumulative effect","[6]; artificial respiration, 15 min after 0.025 mg/kg",+41 cpm
same,"Average aortic pressure, maximum cumulative effect","[6]; artificial respiration, 90 min after 0.08 mg/kg",-36 mmHg
same,"Heart rate, maximum cumulative effect","[6]; spontaneous respiration, 20 min after 0.08 mg/kg",+26 cpm
same,"Average aortic pressure, maximum cumulative effect","[6]; spontaneous respiration, 1 h after 0.08 mg/kg",-40 mmHg
same,EC50,guinea pig trachea; read-out: CD50 before propranolol,11 nM
same,EC50,"guinea pig trachea; propranolol 1.7×10^-8 mol, read-out: CD50 after propranolol",38 nM
same,Ratio of CD50,guinea pig trachea; after / before propranolol,3.5
